Test results taken from ChEMBL document CHEMBL5137105, “Tricyclic Carboxamide Derivatives as PRMT5 Inhibitors for Treating Cancer” (ACS Med Chem Lett, 2022).

Assay: Antiproliferative activity against human HCT116-MTAP null cells assessed as reduction in cell viability incubated for 6 days by CellTiter-Glo luminescent assay
Type: functional, cell-based
Conditions: 144 h
Work on C[C@H](c1ncccn1)N(Cc1ccc(C#N)c(Cl)n1)C(=O)c1ccc2nc(N)c3c(c2c1)COC3 yielded an IC50 of 5 nM.
Work on CC1OCc2c1c(N)nc1ccc(C(=O)N(Cc3ccc(C(F)(F)F)cn3)Cc3ccnc4[nH]ccc34)cc21 (stereo unspecified) yielded an IC50 of 6 nM.
Work on C[C@H](c1ncccn1)N(Cc1ccc(C(F)(F)F)cn1)C(=O)c1ccc2nc(N)c3c(c2c1)CCC3 yielded an IC50 of 6 nM.
For Cn1cc(N(Cc2ccc(C(F)(F)F)cn2)C(=O)c2cc3c(cc2F)nc(N)c2cnn(C)c23)cn1, the IC50 was 5 nM.
Cn1cc(N(Cc2ccc(C(F)(F)F)cn2)C(=O)c2cc3c4c(c(N)nc3cc2Cl)COC4)cn1 showed an IC50 of 6 nM.
Cn1ncc2c(N)nc3cc(F)c(C(=O)N(Cc4ccc(C(F)(F)F)cn4)C4CCC4)cc3c21 gave an IC50 of 5 nM.
